US20250268903A1, “RXFP1 AGONISTS” (BRISTOL-MYERS SQUIBB COMPANY, priority 2021, published 2025)

Biological target: T1, human RXFP1 (Homo sapiens, UniProt Q9HBX9)
T1 construct: expressed in transfected cells
T1 sequence (Q9HBX9 1-757): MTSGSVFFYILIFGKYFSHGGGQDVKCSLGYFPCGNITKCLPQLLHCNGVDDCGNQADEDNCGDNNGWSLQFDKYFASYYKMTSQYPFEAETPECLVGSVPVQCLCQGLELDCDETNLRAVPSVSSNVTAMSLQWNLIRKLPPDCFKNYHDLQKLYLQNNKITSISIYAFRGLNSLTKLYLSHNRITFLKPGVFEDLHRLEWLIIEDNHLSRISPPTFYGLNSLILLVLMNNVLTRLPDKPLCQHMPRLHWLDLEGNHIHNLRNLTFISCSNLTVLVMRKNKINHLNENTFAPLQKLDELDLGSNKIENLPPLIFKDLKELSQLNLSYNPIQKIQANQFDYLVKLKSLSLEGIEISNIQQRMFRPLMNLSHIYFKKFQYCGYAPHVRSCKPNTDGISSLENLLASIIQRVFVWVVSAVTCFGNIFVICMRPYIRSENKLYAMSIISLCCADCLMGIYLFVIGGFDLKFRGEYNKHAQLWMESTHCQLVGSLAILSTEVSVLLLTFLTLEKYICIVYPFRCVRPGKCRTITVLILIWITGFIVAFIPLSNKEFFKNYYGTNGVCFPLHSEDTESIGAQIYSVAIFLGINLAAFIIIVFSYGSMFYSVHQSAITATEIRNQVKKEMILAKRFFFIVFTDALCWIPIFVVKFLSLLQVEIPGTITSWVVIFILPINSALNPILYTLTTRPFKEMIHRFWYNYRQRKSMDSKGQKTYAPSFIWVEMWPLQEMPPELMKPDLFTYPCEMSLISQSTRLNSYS
Test: hRXFP1 HEK293 cAMP assay (HTRF)
Assay type: cell-based
Settings: HEK293 cells stably expressing human RXFP1, 30 min at room temperature
Protocol: RXFP1 Cyclic Adenosine Monophosphate (cAMP) Assays. […] Cells were dissociated and suspended in assay buffer. The assay buffer was HBSS buffer (with calcium and magnesium) containing 20 mM HEPES, 0.05% BSA, and 0.5 mM IBMX. Cells (3000 cells per well, except 1500 cell per well for HEK293 cells stably expressing human RXFP1) were added to 384-well Proxiplates (Perkin-Elmer). Cells were immediately treated with test compounds in DMSO (2% final) at final concentrations in the range of 0.010 nM to 50 μM. Cells were incubated for 30 min at room temperature. The level of intracellular cAMP was determined using the HTRF HiRange cAMP assay reagent kit (Cisbio) according to manufacturer's instructions. Solutions of cryptate conjugated anti-cAMP and d2 fluorophore-labelled cAMP were made in a supplied lysis buffer separately. Upon completion of the reaction, the cells were lysed with equal volume of the d2-cAMP solution and anti-cAMP solution. […] The potency and activity of a compound to […] cAMP production was then determined by fitting to a 4-parametric logistic equation from a plot of cAMP level versus compound concentrations.

Row | EC50 | Compound
1 | 560 nM | COc1ccc(S(=O)(=O)Cc2ccccc2)cc1C(=O)N[C@@H]1C2CCC(/C2=C/C(F)(F)F)[C@@H]1C(=O)Nc1ccc(F)c(C(F)(F)F)c1 (stereo partly drawn) [Example 3, (2S,3R,7Z)-N-[4-fluoro-3-(trifluoromethyl)phe-nyl]-3-(2-methoxy-5-phenylmethanesulfo-nylbenzamido)-7-(2,2,2-trifluoroethylidene)bi-cyclo[2.2.1]heptane-2-carboxamide]
2 | 337 nM | COc1ccc(S(=O)(=O)CCO)cc1C(=O)N[C@H]1[C@@H](C(=O)Nc2ccc(F)c(C(F)(F)F)c2)[C@H]2CC[C@@H]1/C2=C\C(F)(F)F [Example 4, (1R,2S,3R,4R,Z)—N-(4-fluoro-3-(trifluoromethyl)phenyl)-3-(5-((2-hydroxyethyl)sulfonyl)-2-methoxybenzamido)-7-(2,2,2-trifluoroethylidene) bicyclo[2.2.1]heptane-2-carboxamide]
3 | 309 nM | COc1ccc(/C=C/C(=O)O)cc1C(=O)N[C@H]1[C@@H](C(=O)Nc2ccc(F)c(C(F)(F)F)c2)[C@H]2CC[C@@H]1/C2=C\C(F)(F)F [Example 8, (E)-3-(3-(((1R,2R,3S,4R,Z)-3-((4-fluoro-3-(trifluoromethyl)phenyl)carbamoyl)-7-(2,2,2-trifluoroethylidene)bicyclo[2.2.1]heptan-2-yl)carbamoyl)-4-methoxyphenyl) acrylic acid]
4 | 255 nM | COc1ccc(CCC(=O)O)cc1C(=O)N[C@@H]1C2CCC(/C2=C/C(F)(F)F)[C@@H]1C(=O)Nc1ccc(F)c(C(F)(F)F)c1 (stereo partly drawn) [Example 9, 3-(3-{[(2R,3S,7Z)-3-{[4-fluoro-3-(trifluoromethyl)phenyl]carbamoyl}-7-(2,2,2-trifluoroethylidene)bicyclo[2.2.1]heptan-2-yl]carbamoyl}-4-methoxyphenyl) propanoic acid]
5 | 962 nM | COc1ccc(CO)cc1C(=O)N[C@H]1[C@@H](C(=O)Nc2ccc(F)c(C(F)(F)F)c2)[C@H]2CC[C@@H]1/C2=C\C(F)(F)F [Example 10, (1R,2S,3R,4R,Z)—N-(4-fluoro-3-(trifluoromethyl)phenyl)-3-(5-(hydroxymethyl)-2-methoxybenzamido)-7-(2,2,2-trifluoroethylidene) bicyclo[2.2.1]heptane-2-carboxamide]
6 | 4710 nM | CNc1ccc(CCCO)cc1C(=O)N[C@H]1[C@@H](C(=O)Nc2ccc(F)c(C(F)(F)F)c2)[C@H]2CC[C@@H]1/C2=C\C(F)(F)F [Example 11, (1R,2S,3R,4R,Z)—N-(4-fluoro-3-(trifluoromethyl)phenyl)-3-(5-(3-hydroxypropyl)-2-(methylamino)benzamido)-7-(2,2,2-trifluoroethylidene) bicyclo[2.2.1]heptane-2-carboxamide]
7 | 10 nM | COc1ccc(COc2cccc(C(=O)O)c2)cc1C(=O)N[C@H]1[C@@H](C(=O)Nc2ccc(F)c(C(F)(F)F)c2)[C@H]2CC[C@@H]1/C2=C\C1CC1 [Example 12, 3-((3-(((1R,2R,3S,4R,Z)-7-(cyclopropylmethylene)-3-((4-fluoro-3-(trifluoromethyl)phenyl)carbamoyl)bicyclo[2.2.1]heptan-2-yl)carbamoyl)-4-methoxybenzyl)oxy)benzoic acid]
8 | 625 nM | COc1ccc(CN2CCOCC2)cc1C(=O)N[C@@H]1C2CCC(/C2=C/C(F)(F)F)[C@@H]1C(=O)Nc1ccc(F)c(C(F)(F)F)c1 (stereo partly drawn) [Example 13, (2S,3R,7Z)N-[4-fluoro-3-(trifluoromethyl)phe-nyl]-3-{2-methoxy-5-[(morpholin-4-yl)methyl]benzamido}-7-(2,2,2-trifluoroethylidene)bi-cyclo[2.2.1]heptane-2-carboxamide]
9 | 13 nM | COc1cc(COC2(CO)CC2)ccc1C(=O)N[C@H]1[C@@H](C(=O)Nc2ccc(F)c(C(F)(F)F)c2)[C@H]2CC[C@@H]1/C2=C\C1CC1 [Example 14, (1R,2S,3R,4R,Z)-7-(cyclopropylmethylene)-N-(4-fluoro-3-(trifluoromethyl)phenyl)-3-(4-((1-(hydroxymethyl)cyclopropoxy)methyl)-2-methoxybenzamido) bicyclo[2.2.1]heptane-2-carboxamide]
10 | 36 nM | COc1ccc(COCC2CC2(F)F)cc1C(=O)N[C@@H]1C2CCC(/C2=C/C2CC2)[C@@H]1C(=O)Nc1ccc(F)c(C(F)(F)F)c1 (stereo partly drawn) [Example 15, (2S,3R,7Z)-7-(cyclopropylmethyli-dene)-3-(5-{[(2,2-difluorocyclopropyl)methoxy]methyl}-2-methoxybenzamido)-N-[4-fluoro-3-(trifluoromethyl)phe-nyl]bicyclo[2.2.1]hept-ane-2-carboxamide]
11 | 94 nM | COc1ccc(COCC2COC2)cc1C(=O)N[C@@H]1C2CCC(/C2=C/C2CC2)[C@@H]1C(=O)Nc1ccc(F)c(C(F)(F)F)c1 (stereo partly drawn) [Example 16, (2S,3R,7Z)-7-(cyclopropylmethyli-dene)-N-[4-fluoro-3-(trifluoromethyl)phe-nyl]-3-(2-methoxy-5-{[(oxetan-3-yl)methoxy]methyl}benzamido)bi-cyclo[2.2.1]hept-ane-2-carboxamide]
12 | 121 nM | COc1ccc(COC2(C(=O)NCCO)CC2)cc1C(=O)N[C@@H]1C2CCC(/C2=C/C2CC2)[C@@H]1C(=O)Nc1ccc(F)c(C(F)(F)F)c1 (some centres unmarked) [Example 17]
13 | 124 nM | COc1ccc(COC2(C(=O)O)CC2)cc1C(=O)N[C@@H]1C2CCC(/C2=C/C2CC2)[C@@H]1C(=O)Nc1ccc(F)c(C(F)(F)F)c1 (stereo partly drawn) [Example 18, 1-[(3-{[(2R,3S,7Z)-7-(cyclopropylmethyli-dene)-3-{[4-fluoro-3-(trifluoromethyl)phe-nyl]carbamoyl}bicy-clo[2.2.1]heptan-2-yl]carbamoyl}-4-methoxyphenyl)meth-oxy]cyclopropane-1-carboxylic acid]
14 | 125 nM | COc1ccc(COC2CC2)cc1C(=O)N[C@@H]1C2CCC(/C2=C/C2CC2)[C@@H]1C(=O)Nc1ccc(F)c(C(F)(F)F)c1 (stereo partly drawn) [Example 19, (2S,3R,7Z)-3-[5-(cyclopropoxymethyl)-2-methoxybenzamido]-7-(cyclopropylmethyli-dene)-N-[4-fluoro-3-(trifluoromethyl)phe-nyl]bicyclo[2.2.1]hept-ane-2-carboxamide]
15 | 142 nM | COc1ccc(COc2ccccc2)cc1C(=O)N[C@@H]1C2CCC(/C2=C/C(F)(F)F)[C@@H]1C(=O)Nc1ccc(F)c(C(F)(F)F)c1 (stereo partly drawn) [Example 20, (2S,3R,7Z)-N-[4-fluoro-3-(trifluoromethyl)phe-nyl]-3-[2-methoxy-5-(phenoxymethyl)ben-zamido]-7-(2,2,2-trifluoroethylidene)bi-cyclo[2.2.1]heptane-2-carboxamide]
16 | 330 nM | COc1ccc(CN2C(=O)NC3(CCCC3)C2=O)cc1C(=O)N[C@@H]1C2CCC(/C2=C/C2CC2)[C@@H]1C(=O)Nc1ccc(F)c(C(F)(F)F)c1 (stereo partly drawn) [Example 21, (2S,3R,7Z)-7-(cyclopropylmethyli-dene)-3-[5-({2,4-dioxo-1,3-diazaspiro[4.4]nonan-3-yl}methyl)-2-methoxybenzamido]-N-[4-fluoro-3-(trifluoromethyl)phe-nyl]bicyclo[2.2.1]hept-ane-2-carboxamide]
17 | 417 nM | COc1ccc(CN2C(=O)CNC2=O)cc1C(=O)N[C@@H]1C2CCC(/C2=C/C2CC2)[C@@H]1C(=O)Nc1ccc(F)c(C(F)(F)F)c1 (stereo partly drawn) [Example 22, (2S,3R,7Z)-7-(cyclopropylmethyli-dene)-3-{5-[(2,5-dioxoimidazolidin-1-yl)methyl]-2-methoxybenzamido}-N-[4-fluoro-3-(trifluoromethyl)phe-nyl]bicyclo[2.2.1]hept-ane-2-carboxamide]
